Experimental data from patent publication US20050118596A1, “Method for screening for compounds having hdac inhibitory activity” (priority 2002, published 2005).
Where two headings read alike, the source gives them in different places. Where a SMILES comes first, the peptide text is derived from it. [ ]: non-standard residue; d: D form. ξ: configuration not given here. Aoe(9ξ) = N[C@@H](CCCCCC(=O)C1CO1)C(=O)O; dPip = O=C(O)[C@H]1CCCCN1

Tests used:
[1] = tested on: Fra-1 mRNA in H1299 cells; assay: Fra-1 mRNA levels by Q-PCR in H1299 cells after HDAC inhibitor treatment; type: cell-based, Human; conditions: for mrna remaining at 0.1 µM: Homo sapiens, NCI-H1299, read-out: % Fra1 mRNA remaining; for mrna remaining at 0.1 µM / % Fra1 mRNA remaining: H1299 cells
Experimental: Human H1299 non-small cell lung carcinoma cells (ATCC, Manassas, Va.) (ATCC #CRL-5803) are cultured in RPMI 1640 medium (Life Technologies, Gaithersburg, Md.) containing 10% fetal bovine serum (FBS, Life Technologies) plus 50 μg/ml Gentamycin (Life Technologies) in a humidified incubator with a 5% CO2 atmosphere at 37° C. Prior to Tpx A treatment, H1299 cells are plated at a density of 2×10^5 cells/well in 6 well plates (Costar, Corning, N.Y.) and grown up for 24 h. Tpx A (1 mM stock solution in DMSO) is added to the cells at concentrations from 1 to 1000 nM and cells are incubated for either 24 or 48 hours at 37° C.
(§1) Total RNA from Tpx A treated as well as untreated H1299 and A549 cells is prepared using the RNeasy Mini kit (Qiagen, Hilden, Germany) according to the manufacturers instructions. The RNA is recovered in 50 μl DEPC-treated H2O (RNase free) and the RNA concentration is determined by measuring the OD260 in a SpectraMax photometer (Molecular Devices, Sunnyvale, Calif.).
(§2) Sequences for primers (BIG, Freiburg, Germany) and TaqMan probes for Q-PCR containing 5′ FAM fluorescent reporter and 3′ TAMRA quencher dyes (Eurogentec, Seraing, Belgium) are selected using the Primer Express Software (Applied Biosystems, Foster City, Calif.) at default settings; Primer TM Requirements: Min Tm: 58° C., Max Tm:60° C., Optimal Tm: 59° C., Maximal Tm difference: 2° C. Primer GC Content Requirements: Min %GC 30, Max %GC 80, 3′ clamp of 0 residues. Primer Length Requirements: Min length: 9, Max length: 40, optimal length: 20. Amplicon Requirements: Min Tm: 0° C., Max Tm: 85° C., Min length: 50, Max length: 150. TaqMan Probe Criteria: TaqMan probe Tm must be 10° C. greater than PCR primer Tm.
(§3) Q-PCR is performed using the TaqMan PCR Core reagent kit (Applied Biosystems Foster City, Calif.) in a ABI Prism 7700 sequence detector (Applied Biosystems) according to the manufacturers instructions. 50 ng total RNA in 12 μl DEPC-H2O are prepared in MicroAmp optical 96 well reaction plates (Applied Biosystems) together with 13 μl TaqMan PCR reagent mix as provided in Table 1.
(§4) Settings for reverse transcription of the target RNA and detection by Q-PCR are 50° C. for 2 min., 95° C. for 10 min. followed by 50 cycles of 95° C. for 15 sec and 60° C. for 1 min. Relative measurement of the amplified product is performed using the comparative CT method as described in the manufacturer's manual (Applied Biosystems, ABI Prism 7700 sequence detection system, User Bulletin #2).
(§5) H1299 cells and HCT116 cells (ATCC, Manassas, Va.) are cultured and exposed to Tpx A or Compound A and levels of Fra-1 message assayed. In these experiments, H1299 cells are cultured as described in Example 1. HCT116 cells are cultured in RPMI 1640 medium containing 10% fetal calf serum at 37° C. and 5% CO2. 100 nM trapoxin, 100 nM Compound A or 100 nM DMSO are added to the cells at 60% confluence and grown up for either 6 or 24 hours. Using methodologies as described in Example 1 above, the RNA from cultures treated with Tpx A, Compound A or DMSO as a control is obtained and analysed by Q-PCR for Fra-1 levels; in this case, 8.7 ng total RNA in 12 μl DEPC-H2O are prepared in MicroAmp optical 96 well reaction plates (Applied Biosystems) together with 13 μl TaqMan PCR reagent mix as provided in Table 1.

[2] = tested on: histone deacetylase activity purified from H1299 cells; assay: Histone deacetylase activity, release of tritium labeled acetyl groups from acetylated Histone H4 peptide; type: biochemical, Human; conditions: HDAC activity purified from H1299 cells, 2 hours at 37° C.
Experimental: Using conventional methodologies, the actual enzyme activity of […] was examined in the presence of Trapoxin A, Compound A or Compound B. Briefly, 30,000 cpms of a tritium labeled acetylated Histone H4 peptide is incubated with histone deacetylase activity purified from H1299 cells by ion exchange chromatography in HDAC assay buffer (10 mM Tris-Cl, pH 8.0, 10 mM NaCl, 10% glycerol) in the presence or absence of drug. The mixture is allowed to sit for 2 hours at 37° C. and radio-labeled acetyl groups released by histone deacetylase activity extracted into ethyl acetate and counted on a scintillation counter. The IC50 represents the concentration of drug that inhibits 50% of the histone deacetylase activity obtained in the absence of drug.

[3] = tested on: Fra-1 mRNA in HCT116 cells; assay: Fra-1 mRNA levels by Q-PCR in HCT116 cells after HDAC inhibitor treatment; type: cell-based; conditions: for mrna remaining at 0.1 µM: Homo sapiens, HCT-116, 100 nM drug, read-out: % Fra1 mRNA remaining; for % Fra1 mRNA remaining: 100 nM drug
Experimental: as §5

Fra-1 mRNA in A549 cells [4] = assay: Fra-1 mRNA levels by Q-PCR in A549 cells after HDAC inhibitor treatment; type: cell-based, Human; conditions: for mrna remaining at 0.1 µM: Homo sapiens, 100 nM, n = 4 (Example 3), read-out: % Fra1 mRNA remaining; for mrna remaining at 0.1 µM / % Fra1 mRNA remaining: A549 cells
Experimental: Human A549 non-small lung carcinoma cells (ATCC CCL-185, Manassas, Va.) are cultured in DMEM medium (Life Technologies, Gaithersburg, Md.) containing 4500 mg/l glucose, 10% fetal bovine serum (FBS, Life Technologies) plus 50 μg/ml Gentamycin (Life Technologies) in a humidified incubator with a 5% CO2 atmosphere at 37° C. Prior to Tpx A treatment, A549 cells are plated at a density of 2×10^5 cells/well in 6 well plates (Costar, Corning, N.Y.) and grown up for 24 h. Tpx A (1 mM stock solution in DMSO) is added to the cells at concentrations from 1 to 1000 nM and cells are incubated for either 24 or 48 hours h at 37° C.
as §1, §2, §3, §4
Human A549 non-small cell lung carcinoma cells (ATCC, Manassas, Va.) (ATCC #CCL-185) are cultured in DMEM medium (Life Technologies, Gaithersburg, Md.) containing 10% fetal bovine serum (FBS, Life Technologies) plus 50 μg/ml Gentamycin (Life Technologies) in a humidified incubator with a 5% CO2 atmosphere at 37° C. Prior to Compound B treatment, A549 cells are plated at a density of 5×10^4 cells/well in 24 well plates (Costar, Corning, N.Y.) and grown up for 24 h. Compound B (10 mM stock solution in DMSO) is diluted to a final concentration of 100 nM in tissue culture medium and added to the cells. As control an equivalent amount of DMSO is added to control cultures without Compound B. The cells are incubated at 37° C. for either 16, 24 or 48 hrs. All cell cultures are set up in duplicate. Total RNA from the compound—treated as well as untreated A549 cells is prepared using the RNeasy Mini kit (Qiagen, Hilden, Germany) according to the manufacturer's instructions. The RNA is recovered in 50 μl DEPC-treated H2O (RNase free) and the RNA concentration is determined by measuring the OD260 in a SpectraMax photometer (Molecular Devices, Sunnyvale, Calif.). The amount of RNA is adjusted to 5 ng/microliter.
DNA sequence of the Fra-1 primers and probes are as described above. Settings for reverse transcription of the target RNA and detection by Q-PCR are 50° C. for 2 min., 95° C. for 10 min. followed by 50 cycles of 95° C. for 15 sec and 60° C. for 1 min. […]

Fra-1 mRNA in A549 cells [5] = assay: Fra-1 mRNA expression by conventional microarray technology in A549 cells; type: cell-based, Human; conditions: in the presence of TPX A, data not shown
[6] = tested on: Fra-1 mRNA in H1299 cells; assay: Fra-1 mRNA expression by conventional microarray technology in H1299 cells; type: cell-based, Human; conditions: in the presence of TPX A, data not shown
[7] = target: histone deacetylase activity purified from H1299 cells by ion exchange chromatography (human); assay: cell-based or functional assay

O=C(/C=C/c1ccc(CNCCc2c[nH]c3ccccc23)cc1)NO [Compound A, N-Hydroxy-3-[4-[[[2-(1H-indol-3-yl)-ethyl]-amino]methyl]phenyl]-2E-2-propenamide]
mrna remaining at 0.1 µM ([1]; 100 nM drug, 6 hr (Example 2)): 7.14% | mrna remaining at 0.1 µM ([1]; 100 nM drug, 24 hr (Example 2)): 2.07% | IC50 [2]: 0.063 ± 0.01 µM | mrna remaining at 0.1 µM ([3]; 6 hr): 32.6% | mrna remaining at 0.1 µM ([3]; 24 hr): 15.9%

O=C(/C=C/c1ccc(CN(CCO)CCc2c[nH]c3ccccc23)cc1)NO [Compound B, N-Hydroxy-3-[4-[[(2-hydroxyethyl)[2-(1H-indol-3-yl)-ethyl]-amino]methyl]phenyl]-2E-2-propenamide]
mrna remaining at 0.1 µM (Fra-1 mRNA in A549 cells [4]; 16 hr): 15% | mrna remaining at 0.1 µM (Fra-1 mRNA in A549 cells [4]; 24 hr): 14.1% | mrna remaining at 0.1 µM (Fra-1 mRNA in A549 cells [4]; 48 hr): 52.8% | IC50 [2]: 0.032 ± 0.017 µM

O=C(CCCCC[C@@H]1NC(=O)[C@H]2CCCCN2C(=O)[C@H](Cc2ccccc2)NC(=O)[C@H](Cc2ccccc2)NC1=O)C1CO1 (some centres unmarked) [TPX A, trapoxin A] (cyclo(FF[dPip][Aoe(9ξ)]))
IC50 ([1]; H1299 cell line, Tpx A treatment, Q-PCR, read-out: IC50 for Fra-1 mRNA down regulation): 1 to 10 nM | % Fra1 mRNA remaining ([1]; 100 nM drug, 6 hr (Example 2)): 5.81% | % Fra1 mRNA remaining ([1]; 100 nM drug, 24 hr (Example 2)): 3.11% | % Fra1 mRNA remaining ([1]; 24 hours, 1 nM TPX A): 98% | % Fra1 mRNA remaining ([1]; 24 hours, 10 nM TPX A): 2% | % Fra1 mRNA remaining ([1]; 24 hours, 50 nM TPX A): 1% | % Fra1 mRNA remaining ([1]; 24 hours, 100 nM TPX A): 1% | % Fra1 mRNA remaining ([1]; 24 hours, 250 nM TPX A): 1% | % Fra1 mRNA remaining ([1]; 24 hours, 500 nM TPX A): 1% | % Fra1 mRNA remaining ([1]; 24 hours, 1000 nM TPX A): 1% | % Fra1 mRNA remaining ([1]; 48 hours, 1 nM TPX A): 94% | % Fra1 mRNA remaining ([1]; 48 hours, 10 nM TPX A): 7% | % Fra1 mRNA remaining ([1]; 48 hours, 50 nM TPX A): 1% | % Fra1 mRNA remaining ([1]; 48 hours, 100 nM TPX A): 1% | % Fra1 mRNA remaining ([1]; 48 hours, 250 nM TPX A): 1% | % Fra1 mRNA remaining ([1]; 48 hours, 500 nM TPX A): 1% | % Fra1 mRNA remaining ([1]; 48 hours, 1000 nM TPX A): 1% | IC50 (Fra-1 mRNA in A549 cells [4]; A549 cell line, Tpx A treatment, Q-PCR, read-out: IC50 for Fra-1 mRNA down regulation): 10 to 50 nM | % Fra1 mRNA remaining (Fra-1 mRNA in A549 cells [4]; 24 hours, 1 nM TPX A): 95% | % Fra1 mRNA remaining (Fra-1 mRNA in A549 cells [4]; 24 hours, 10 nM TPX A): 64% | % Fra1 mRNA remaining (Fra-1 mRNA in A549 cells [4]; 24 hours, 50 nM TPX A): 26% | % Fra1 mRNA remaining (Fra-1 mRNA in A549 cells [4]; 24 hours, 100 nM TPX A): 16% | % Fra1 mRNA remaining (Fra-1 mRNA in A549 cells [4]; 24 hours, 250 nM TPX A): 6% | % Fra1 mRNA remaining (Fra-1 mRNA in A549 cells [4]; 24 hours, 500 nM TPX A): 4% | % Fra1 mRNA remaining (Fra-1 mRNA in A549 cells [4]; 24 hours, 1000 nM TPX A): 3% | % Fra1 mRNA remaining (Fra-1 mRNA in A549 cells [4]; 48 hours, 1 nM TPX A): 93% | % Fra1 mRNA remaining (Fra-1 mRNA in A549 cells [4]; 48 hours, 10 nM TPX A): 84% | % Fra1 mRNA remaining (Fra-1 mRNA in A549 cells [4]; 48 hours, 50 nM TPX A): 38% | % Fra1 mRNA remaining (Fra-1 mRNA in A549 cells [4]; 48 hours, 100 nM TPX A): 32% | % Fra1 mRNA remaining (Fra-1 mRNA in A549 cells [4]; 48 hours, 250 nM TPX A): 14% | % Fra1 mRNA remaining (Fra-1 mRNA in A549 cells [4]; 48 hours, 500 nM TPX A): 7% | % Fra1 mRNA remaining (Fra-1 mRNA in A549 cells [4]; 48 hours, 1000 nM TPX A): 6% | IC50 [2]: 2.2 ± 0.96 µM | repression of Fra-1 mRNA expression (microarray) (Fra-1 mRNA in A549 cells [5]): > 200 fold | repression of Fra-1 mRNA expression (microarray) [6]: > 200 fold | % Fra1 mRNA remaining ([3]; 6 hr): 14.25% | % Fra1 mRNA remaining ([3]; 24 hr): 13.68%

trapoxin A (peptide)
IC50/µM on histone deacetylase (release of tritium-labelled acetyl groups from an acetylated Histone H4 peptide) [7]: 2.2 µM
